Measurements reported in DBAASP.
≈ marks a conversion by molar mass, not a printed value. Values belong to the compound of their own block, whether it stands above or below them.

How the values were obtained:
Experiment in all cases: ≥ marks a high value that may be exact or a test limit, other limits are often not marked, values filed in µg/mL are converted to µM
[1] = system: Streptococcus pyogenes M1T1 5448
[2] = system: Pseudomonas aeruginosa PAO1
[3] = system: Escherichia coli BL21
[4] = system: Staphylococcus aureus USA 300
[5] = system: Acinetobacter baumannii
[6] = system: Staphylococcus aureus ATCC 43300
[7] = system: Pseudomonas aeruginosa
[8] = system: Enterococcus faecium
[9] = system: Klebsiella pneumoniae
[10] = system: Escherichia coli ATCC 25922
[11] = system: Streptococcus pneumoniae
[12] = system: Pseudomonas aeruginosa ATCC 27853
[13] = system: Enterococcus faecium ATCC 700221
[14] = system: Staphylococcus aureus ATCC 33591
[15] = system: Staphylococcus aureus ATCC 25923
[16] = system: Listeria monocytogenes EGD
[17] = system: Candida albicans ATCC 10231
[18] = system: Klebsiella aerogenes ATCC 13048
[19] = system: Klebsiella pneumoniae WGLW2
[20] = system: Staphylococcus aureus ATCC 29231
[21] = system: Acinetobacter baumannii ATCC 7978

SMILES: CC[C@H](C)[C@H](NC(=O)[C@H](CCCCN)NC(=O)[C@H](CCCCN)NC(=O)CNC(=O)[C@H](CCC(=O)O)NC(=O)[C@H](CCC(N)=O)NC(=O)[C@@H](NC(=O)[C@@H](NC(=O)[C@H](CCCCN)NC(=O)[C@H](CCCCN)NC(=O)[C@H](CC(C)C)NC(=O)[C@H](CCCN=C(N)N)NC(=O)[C@H](CCC(N)=O)NC(=O)[C@H](Cc1ccccc1)NC(=O)[C@@H](NC(=O)[C@H](CCCCN)NC(=O)[C@H](CCC(=O)O)NC(=O)[C@H](CCCCN)NC(=O)CNC(=O)[C@H](C)N)[C@@H](C)CC)[C@@H](C)O)[C@@H](C)CC)C(=O)N[C@@H](C)C(=O)N[C@@H](CCCCN)C(=O)N[C@@H](CCCN=C(N)N)C(=O)N[C@@H](C)C(=O)N[C@@H](Cc1c[nH]c2ccccc12)C(=O)O [AGKEKIFQRLKKTIQEGKKIAKRAW]
MIC [1]: ≥ 128 µM
MIC [2]: 64 µM (≈ 189 µg/mL)
MIC [3]: 16 µM (≈ 47.3 µg/mL)
MIC [4]: 4 µM (≈ 11.8 µg/mL)

SMILES: CC[C@H](C)[C@H](NC(=O)[C@H](CCCCN)NC(=O)[C@H](CCCCN)NC(=O)[C@H](CCCCN)NC(=O)[C@H](CC(C)C)NC(=O)[C@H](Cc1ccccc1)NC(=O)[C@H](CCC(N)=O)NC(=O)[C@H](CCCN=C(N)N)NC(=O)[C@@H](NC(=O)[C@@H](NC(=O)[C@H](CCC(=O)O)NC(=O)[C@H](CCCCN)NC(=O)CNC(=O)[C@H](C)N)[C@@H](C)O)[C@@H](C)CC)C(=O)N[C@@H](CCC(N)=O)C(=O)N[C@@H](CCC(=O)O)C(=O)N[C@@H](CCCCN)C(=O)NCC(=O)N[C@@H](CCCCN)C(=O)N[C@@H](CCCN=C(N)N)C(=O)N[C@@H](C)C(=O)N[C@H](C(=O)N[C@H](C(=O)N[C@@H](C)C(=O)N[C@@H](Cc1c[nH]c2ccccc12)C(=O)O)[C@@H](C)CC)[C@@H](C)O [AGKETIRQFLKKKIQEKGKRATIAW]
MIC [1]: 8 µM (≈ 23.4 µg/mL)
MIC [2]: > 128 µM
MIC [3]: ≥ 32 µM

SMILES: CC[C@H](C)[C@H](NC(=O)[C@H](CO)NC(=O)[C@H](CCC(=O)O)NC(=O)[C@H](CCCN=C(N)N)NC(=O)CNC(=O)[C@H](C)N)C(=O)N[C@@H](CCCCN)C(=O)N[C@@H](C)C(=O)N[C@@H](Cc1ccc(O)cc1)C(=O)N[C@@H](CC(C)C)C(=O)N[C@@H](CCCCN)C(=O)N[C@@H](CCCCN)C(=O)N[C@@H](CCC(=O)O)C(=O)N[C@H](C(=O)N[C@@H](CCCCN)C(=O)N[C@@H](CCCCN)C(=O)N[C@@H](CCCCN)C(=O)N[C@@H](Cc1c[nH]c2ccccc12)C(=O)N[C@@H](CCCCN)C(=O)N[C@@H](CCCN=C(N)N)C(=O)N[C@@H](C)C(=O)N[C@H](C(=O)N[C@H](C(=O)N[C@@H](C)C(=O)N[C@@H](Cc1c[nH]c2ccccc12)C(=O)O)[C@@H](C)CC)C(C)C)[C@@H](C)CC [AGRESIKAYLKKEIKKKWKRAVIAW]
MIC [1]: 16 µM (≈ 48 µg/mL)
MIC [2]: 16 µM (≈ 48 µg/mL)
MIC [3]: 4 µM (≈ 12 µg/mL)
MIC [4]: ≥ 128 µM

SMILES: CC[C@H](C)[C@H](NC(=O)[C@H](CCCCN)NC(=O)[C@H](CCCCN)NC(=O)[C@@H](N)CC(C)C)C(=O)NCC(=O)N[C@@H](CCCCN)C(=O)N[C@@H](CCCCN)C(=O)N[C@H](C(=O)N[C@@H](Cc1c[nH]c2ccccc12)C(=O)N[C@@H](CCCN=C(N)N)C(=O)N[C@H](C(=O)NCC(=O)N[C@@H](Cc1c[nH]c2ccccc12)C(=O)N[C@@H](CC(N)=O)C(=O)N[C@@H](Cc1c[nH]c2ccccc12)C(=O)N[C@@H](CCCN=C(N)N)C(=O)O)C(C)C)[C@@H](C)CC [LKKIGKKIWRVGWNWR]
MIC [17]: 61.9 µM (≈ 128 µg/mL)
MIC [18]: ≥ 61.9 µM
MIC [19]: ≥ 32.3 µM
MIC [20]: ≥ 61.9 µM
MIC [21]: 16.1 µM (≈ 33.4 µg/mL)

Continued, values first:

MIC [1]: 16 µM (≈ 47.2 µg/mL)
MIC [2]: > 128 µM
MIC [3]: ≥ 32 µM
SMILES: CC[C@H](C)[C@H](NC(=O)[C@H](Cc1ccccc1)NC(=O)[C@H](C)NC(=O)[C@H](CCCCN)NC(=O)[C@H](CCCCN)NC(=O)CNC(=O)[C@H](CCCN=C(N)N)NC(=O)[C@H](CCCCN)NC(=O)[C@H](CCCN=C(N)N)NC(=O)[C@H](CC(C)C)NC(=O)[C@H](CCC(=O)O)NC(=O)[C@H](CCC(=O)O)NC(=O)[C@H](CCCCN)NC(=O)[C@H](CC(C)C)NC(=O)[C@H](Cc1ccc(O)cc1)NC(=O)[C@H](CC(C)C)NC(=O)[C@@H](NC(=O)[C@H](CC(C)C)NC(=O)[C@H](C)NC(=O)[C@H](CCC(N)=O)NC(=O)[C@H](CCCN=C(N)N)NC(=O)CNC(=O)[C@H](C)N)[C@@H](C)O)C(=O)N[C@@H](C)C(=O)N[C@@H](Cc1c[nH]c2ccccc12)C(=O)O [AGRQALTLYLKEELRKRGKKAFIAW]

MIC [5]: 5.3 µM (≈ 10.9 µg/mL)
MIC [6]: 16 µM (≈ 32.8 µg/mL)
MIC [7]: > 16 µM
MIC [8]: 8 µM (≈ 16.4 µg/mL)
MIC [9]: 16 µM (≈ 32.8 µg/mL)
MIC [10]: > 16 µM
MIC [11]: 8 µM (≈ 16.4 µg/mL)
SMILES: CC[C@H](C)[C@H](NC(=O)[C@H](Cc1cnc[nH]1)NC(=O)CNC(=O)CN)C(=O)N[C@@H](CCCN=C(N)N)C(=O)N[C@@H](CCCN=C(N)N)C(=O)N[C@H](C(=O)N[C@H](C(=O)N[C@@H](CCCN=C(N)N)C(=O)N[C@@H](CCCCN)C(=O)N[C@H](C(=O)N[C@H](C(=O)N[C@@H](Cc1cnc[nH]1)C(=O)N[C@H](C(=O)N[C@H](C(=O)N[C@@H](CCCCN)C(=O)N[C@@H](CCCCN)C(N)=O)[C@@H](C)CC)[C@@H](C)CC)[C@@H](C)CC)[C@@H](C)CC)[C@@H](C)CC)[C@@H](C)CC [GGHIRRIIRKIIHIIKK]

MIC [12]: 50 µM (≈ 86.4 µg/mL)
MIC [13]: 6.3 µM (≈ 10.9 µg/mL)
MIC [10]: 6.3 µM (≈ 10.9 µg/mL)
MIC [14]: 12.5 µM (≈ 21.6 µg/mL)
SMILES: CC[C@H](C)[C@H](NC(=O)[C@H](CCCCN)NC(=O)[C@H](CCCCN)NC(=O)[C@H](CC(C)C)NC(=O)[C@@H](NC(=O)[C@H](CCCCN)NC(=O)[C@H](CCCCN)NC(=O)[C@@H](NC(=O)[C@@H](NC(=O)[C@H](CC(=O)O)NC(=O)[C@H](Cc1ccccc1)NC(=O)[C@H](CC(C)C)NC(=O)CN)C(C)C)[C@@H](C)CC)C(C)C)C(=O)NCC(=O)NCC(=O)N[C@@H](CC(C)C)C(N)=O [GLFDVIKKVLKKIGGL]

MIC [12]: 32 µM (≈ 75.2 µg/mL)
MIC [15]: 64 µM (≈ 150 µg/mL)
MIC [16]: ≥ 32 µM
MIC [10]: 64 µM (≈ 150 µg/mL)
SMILES: CC(C)C[C@H](NC(=O)[C@H](CC(C)C)NC(=O)[C@H](CCCCN)NC(=O)[C@@H](NC(=O)[C@@H](NC(=O)[C@H](CO)NC(=O)[C@H](CCCCN)NC(=O)[C@H](Cc1ccccc1)NC(=O)[C@@H](NC(=O)[C@@H](N)CCCCN)C(C)C)C(C)C)C(C)C)C(=O)N[C@@H](CCC(=O)O)C(=O)N[C@@H](CCCCN)C(=O)N[C@H](C(=O)N[C@H](C(=O)N[C@@H](CC(C)C)C(=O)N[C@@H](CCCCN)C(=O)N[C@@H](CCCCN)C(=O)N[C@@H](Cc1ccccc1)C(=O)N[C@@H](CO)C(=O)N[C@@H](CCCCN)C(N)=O)C(C)C)[C@@H](C)O [KVFKSVVKLLEKTVLKKFSK]
